Results on two compounds are retold here after US6960321B1, “Sterilization of fire sprinkler systems” (priority 1999, dated 2005).

Some results are limits rather than exact numbers.

Series [1] relates to Low Nutrient Bacteria. Put plainly: MICkit microbiological testing of pipe water and scrapings, low nutrient bacteria. The series is classed as cell-based. How it is done:
(§1) One end cap of the pipe was removed and the contaminated water poured out of the pipe and a pre-sterilization sample of the water and scrapings from the interior pipe wall were taken under sterile conditions for microbiological testing employing a MICkit™ supplied by Bioindustrial Technologies, Inc., Georgetown, Tex. The microbiological samples were incubated for three weeks at 35° C. and observed for microbiological growth.
(§2) Steam was then injected into the test pipe by opening the ball valve slowly with the steam pressure at 30 lbs pressure (135° C.). The temperature at the end of the test pipe rapidly rose to 94° C. and then appeared to remain nearly constant. The ball valve was then closed and the pipe cooled to room temperature. The condensate water and scrapings from the interior of the test pipe were collected by removal of the pipe from the adapter under sterile conditions. The samples so collected were microbiologically tested as above.
(§3) The end cap was then replaced with a ball valve and the steam sterilization was repeated. The ball valve at the end of the pipe was opened slightly to allow condensate and live steam to escape. The temperature at the end of the pipe rapidly rose to 110° C. The test was terminated by closing the ball valves and allowing the pipe to cool to room temperature. The pipe was again sampled for microbiological testing as above.
(§4) Microbiologically contaminated water was obtained from a “dead end” water feed-line to a fire protection system and was assayed microbiologically using the MICkit™ giving the following results after only 2 days of incubation at 35° C.:
(§5) The steam was allowed to slowly enter the pipe by regulating the input ball valve with the outlet ball valve open. Steam flowed through the pipe, heating it rapidly to near 100° C. The outlet ball valve was then nearly closed allowing the steam pressure in the pipe to increase. The temperature at the end of the pipe reached 135° C. and was kept there for five minutes. The inlet and outlet ball valves were closed and the pipe with the valves closed was removed and cooled in a stream of water. A small amount of sterile water (autoclaved at 121° C. for 15 minutes) was added to the sterilized pipe and the pipe raised, lowered and rotated to rinse the inside of the pipe system. The pipe was then opened and the water and scrapings from the side of the pipe were taken using sterile techniques for microbiological analysis.
(§6) The drained pipe was then sterilized as in Example 2 (per FIG. 2) using steam and a temperature of 135° C. by controlling the inlet and outlet ball valves. The ball valves at the ends of the pipe were then closed, the pipe removed from the test station and cooled with water. A small amount of sterile water was introduced and the inside of the pipe rinsed with it for several minutes. The pipe was then opened and the water and scrapings from the side of the pipe taken for microbiological analysis.

The subject of series [2] is Iron Related Bacteria. Put plainly: MICkit microbiological testing of pipe water and scrapings, iron related bacteria. The series is classed as cell-based. How it is done: as §1, §2, §3, §4, §5, §6
The subject of series [3] is Acid Producing Bacteria. Nature of the series: MICkit microbiological testing of pipe water and scrapings, acid producing bacteria. The series is classed as cell-based. The method, then:
as §1, §2, §3, §4, §5, §6

For series [4], the system named is Sulfate Reducing Bacteria. Nature of the series: MICkit microbiological testing of pipe water and scrapings, sulfate reducing bacteria. The series is classed as cell-based. How it is done: as §1, §2, §3, §4, §5, §6
Series [5] deals with aerobic bacteria (colony forming units). Put plainly: Aerobic plate count of pipe water and scrapings. The format is cell-based. The method, then:
Microbiologically contaminated water was obtained from a “dead end” water feed-line to a fire protection system and was assayed microbiologically using the […] giving the following results after only 2 days of incubation at 35° C.: [table] The steam was allowed to slowly enter the pipe by regulating the input ball valve with the outlet ball valve open. Steam flowed through the pipe, heating it rapidly to near 100° C. The outlet ball valve was then nearly closed allowing the steam pressure in the pipe to increase. The temperature at the end of the pipe reached 135° C. and was kept there for five minutes. The inlet and outlet ball valves were closed and the pipe with the valves closed was removed and cooled in a stream of water. A small amount of sterile water (autoclaved at 121° C. for 15 minutes) was added to the sterilized pipe and the pipe raised, lowered and rotated to rinse the inside of the pipe system. The pipe was then opened and the water and scrapings from the side of the pipe were taken using sterile techniques for microbiological analysis. The drained pipe was then sterilized as in Example 2 (per FIG. 2) using steam and a temperature of 135° C. by controlling the inlet and outlet ball valves. The ball valves at the ends of the pipe were then closed, the pipe removed from the test station and cooled with water. A small amount of sterile water was introduced and the inside of the pipe rinsed with it for several minutes. The pipe was then opened and the water and scrapings from the side of the pipe taken for microbiological analysis.

Series [6] is described as follows: Analysis of residual sodium hypochlorite in water standing in iron pipe. The settings on record: 50 ppm in potable tap water in iron pipe, ambient temperature, after 24 hours. The format is physicochemical. From the text:
The sterilized pipe from Example 2 was then filled with potable tap water containing 50 ppm sodium hypochlorite and allowed to stand at ambient temperature. The sodium hypochlorite, being an oxidizing agent, rapidly dissipated when in contact with the interior iron pipe surface.

[7] abbreviates: Example 1, contaminated 1-inch sprinkler pipe, steam, pipe end 94° C., capped end, incubated three weeks at 35° C.
The mark [8] stands for this setting: Example 1, steam repeated with outlet ball valve, pipe end 110° C., incubated three weeks at 35° C.
Setting [9] is: Example 2, new pipe infected with dead end water, steam 135° C. for five minutes, incubation 15 days.
Where [10] appears, read: Example 4, chemically cleaned contaminated pipe, steam 135° C., after 15 days.
Setting [11] is: Example 3, steam-sterilized pipe filled with potable tap water containing 50 ppm sodium hypochlorite, 24 hours plus seven days at ambient temperature.
Setting [12] is: Example 5, sterilized pipe recontaminated 16 hours with dead end water, then tap water with 50 ppm sodium hypochlorite overnight, incubation 15 days.

As for `O` [steam], the LNB result was “Negative” in series [1] (setting [7]), “Negative” in series [1] (setting [8]), “negative” in series [1] (setting [9]) and “negative” in series [1] (setting [10]). The IRB result is “Negative” in series [2] (setting [7]), “Negative” in series [2] (setting [8]), “negative” in series [2] (setting [9]) and “negative” in series [2] (setting [10]). The APB entry was “Negative” in series [3] (setting [7]), “Negative” in series [3] (setting [8]), “negative” in series [3] (setting [9]) and “negative” in series [3] (setting [10]). The SRB entry is “Negative” in series [4] (setting [7]), “Negative” in series [4] (setting [8]), “negative” in series [4] (setting [9]) and “negative” in series [4] (setting [10]). Besides, the APC in series [5] (setting [9]) and in series [5] (setting [10]) was < 1 colony forming units per mil each time.

Take `OCl` [sodium hypochlorite, reference compound]: the LNB entry in series [1] (setting [11]) is recorded as “negative”; in series [1] (setting [12]), “positive”. Further, the IRB entry in series [2] (setting [11]) and in series [2] (setting [12]) was “negative” throughout. The APB entry in series [3] (setting [11]) and in series [3] (setting [12]) was “negative” in each case. For the same compound, the SRB result in series [4] (setting [11]) and in series [4] (setting [12]) was “negative” each time. The APC in series [5] (setting [11]) and in series [5] (setting [12]) was < 1 colony forming units per mil in each case. In series [6], the “sodium hypochlorite remaining in the water” value came to 0 ppm.
